According to patent US20080008707A1, “Denatured collagen peptides and uses thereof” (Cell-Matrix, Inc., priority 2006, published 2008):
Marks after values point to notes of the source that are not given here. Square brackets hold non-standard residues; d marks the D form. Ends that are not written are not given here. Hyp = O=C(O)[C@@H]1C[C@@H](O)CN1

Tests used:
[1] = system: D93 binding to human denatured-collagen IV; experiment: Competition ELISA: synthetic peptides blocking D93 binding to heat denatured collagen IV
Method: (§1) The ELISA was conducted as follows: wells of a 96-well microtiter plate (Immulon, 4 HBX flat-bottomed, Thermo Electron Corporation, Waltham, Mass.) were coated with 100 μL/well of dn-collagen IV at 10 μg/mL in Phosphate Buffered Saline (PBS) overnight at 4° C. The plate was washed 3 times (3×) with PBS containing 0.05% (v/v) Tween-20 (PBST) using an automated plate washer.
(§2) The plate was blocked by adding 300 μL/well of 1% BSA (w/v) in PBS for 1 hour at 25° C. followed by washing 3× in PBST as above.
(§3) Solutions of D93 or HUI77 were prepared with various concentrations of peptide or antibody inhibitor and incubate for 15 minutes. D93 or HUI77 was prepared at 200 ng/mL in 1% BSA/PBS.
(§4) For antibody blocking studies using synthetic peptides: peptide inhibitor stock solutions were prepared at 2 mM, 0.2 mM, 0.02 mM, and 0.002 mM in 1% BSA/PBS. 500 μL of a 2 mM peptide solution in 1% BSA/PBS was prepared and diluted 1:10 in 500 μL a total of three times to make peptide inhibitor concentrations.
(§5) 200 μL of D93 or HUI77 at 200 ng/mL solution was combined with 200 μL of peptide or antibody inhibitor solution and incubated for 15 minutes at room temperature.
(§6) D93 or HUI77 with various concentrations of inhibitors (2 mM, 0.2 mM, 0.02 mM, and 0.002 mM) were added to microplate wells and incubated for 1 hour at 25° C. The plate was washed 3× in PBST as above.
(§7) To each microtiter plate well, 100 μL of diluted anti-human IgG or anti-mouse IgM conjugated to horseradish peroxidase (HRP) in PBST was added and incubated for one hour at 25° C.: (a) for D93: Goat anti-human IgG-HRP (Jackson ImmunoResearch, Catalog No. 109-035-088) was used at 1:20,000 and (b) for HUI77: Goat anti-mouse IgM-HRP was used at 1:4,000. Plates were washed 3× in PBST as above.
(§8) Tetramethylbenzidine (TMB) substrate (100 μL; Pierce Chemicals)) was added to wells and the plates were allowed to develop at room temperature for 15 minutes in the dark. Substrate development was stopped by adding 50 μL/well of 2N H2SO4. The microtiter […] plates were read at 450 nm within five minutes of adding the H2SO4. Reactivity was measured with a microplate reader (Molecular Devices, Sunnyvale, Calif.) at a wavelength of 450 nm and analyzed using SOFTMax® PRO4.0 (Molecular Devices). All samples were tested in triplicate.
(§9) Individual peptides with amino acid substitutions and deletions were also synthesized based on the primary and secondary peptide arrays. […] The inhibitory activity of the individual peptides was tested by ELISA as previously described to measure binding of D93 or HUI77 to denatured collagen where peptides and antibodies were prepared at a 2× concentration and pre-incubated for 15 minutes prior to adding to microtiter plates coated with dn-collagen.
(§10) 96-well plates were coated with 100 μL/well of denatured (dn) collagen IV at 10 μg/mL in phosphate buffered saline (PBS) overnight at 4° C. followed by washing the plates in an automated plate washer 3 times in PBS containing 0.05% (v/v) Tween-20 (PBST). Non-specific binding was prevented by blocking the wells by adding 300 μL/well of 1% bovine serum albumin (BSA) (w/v) in PBS for 1 hour (hr) at 25° C. The plates were washed as above.
(§11) Solutions of D93 and HUI77 antibodies were prepared with various concentrations of inhibitor and incubated for 15 minutes. Briefly, 20 mLs of D93 or HUI77 were prepared at 200 ng/mL in 1% BSA/PBS. Solutions of peptide inhibitors (2 mM, 0.2 mM, […]) were prepared in 1% BSA/PBS. Equal volumes of antibodies and peptide inhibitors were combined: 200 μL of D93 or HUI77 (200 ng/mL solution) with 200 μL of each peptide solution.
(§12) 100 μL/well of D93 or HUI77 at 100 ng/mL with various concentrations of inhibitors were added to the wells in triplicate and incubated for 1 hour at 25° C. The plates were washed as described above.
(§13) 100 μL/well of secondary horseradish peroxidase (HRP)-conjugated antibody in PBST was added to each well and incubated for 1 hour (hr) at 25° C. […]

[2] = system: HUI77 binding to denatured collagen IV; experiment: Competition ELISA: synthetic peptides blocking HUI77 binding to heat denatured collagen IV; design: species or system human
Method: as §1, §2, §3, §4, §5, §6, §7, §8, §9, §10, §11, §12, §13

[3] = peptide inhibitor concentration 1 μM, average of two studies, vs 1% BSA/PBS alone
[4] = peptide inhibitor concentration 10 μM, average of two studies, vs 1% BSA/PBS alone
[5] = peptide inhibitor concentration 100 μM, average of two studies, vs 1% BSA/PBS alone
[6] = peptide inhibitor concentration 1000 μM, asterisk (*): data from a separate assay
[7] = peptide inhibitor concentration 1000 μM, average of two studies, vs 1% BSA/PBS alone
[8] = peptide inhibitor concentration 10 μM, average of two studies
[9] = peptide inhibitor concentration 100 μM, average of two studies
[10] = peptide inhibitor concentration 1000 μM, average of two studies
[11] = peptide inhibitor concentration 100 μM, asterisk (*): data from a separate assay

% INHIBITION OF BINDING OF D93 TO HUMAN DENATURED-COLLAGEN IV [1, 3] [%] | % INHIBITION OF BINDING OF D93 TO HUMAN DENATURED-COLLAGEN IV [1, 4] | % INHIBITION OF BINDING OF D93 TO HUMAN DENATURED-COLLAGEN IV [1, 5] [%] | % INHIBITION OF BINDING OF D93 TO HUMAN DENATURED-COLLAGEN IV [1, 7] [%] | % INHIBITION OF BINDING OF HUI77 TO DENATURED COLLAGEN IV [2, 8] [%] | % INHIBITION OF BINDING OF HUI77 TO DENATURED COLLAGEN IV [2, 9] [%] | % INHIBITION OF BINDING OF HUI77 TO DENATURED COLLAGEN IV [2, 10] [%] | Substance | other results
4.5 | 1% | 0 | 3.5 | 6.5 | 6.5 | 6.5 | CTWPRHHTTDALL [SEQ ID NO: 39, reference compound] | % INHIBITION OF BINDING OF D93 TO HUMAN DENATURED-COLLAGEN IV [1, 6]: 4.9%; % INHIBITION OF BINDING OF HUI77 TO DENATURED COLLAGEN IV [2, 6]: 11.1%
11 | 43% | 89.5 | 93.5 | 4.5 | 9 | 62 | F-Hyp-G-P-Hyp-G-P-D-G-L-P-G-S-M-G-P-Hyp-G (F[Hyp]GP[Hyp]GPDGLPGSMGP[Hyp]G) [SEQ ID NO: 36] | –
9.5 | 6.5% | 11 | 52 | 6.5 | 9 | 14 | G-P-Hyp-G (GP[Hyp]G) [SEQ ID NO: 34] | –
33 | 82.5, % | 94 | 94 | 8.5 | 12 | 78 | G-P-Hyp-G-P-Hyp-G-P-Y (GP[Hyp]GP[Hyp]GPY) [SEQ ID NO: 30] | % INHIBITION OF BINDING OF D93 TO HUMAN DENATURED-COLLAGEN IV ([1]; peptide inhibitor concentration 10 μM, asterisk (*): data from a separate assay): 79.9* %; % INHIBITION OF BINDING OF D93 TO HUMAN DENATURED-COLLAGEN IV [1, 11]: 90.3%; % INHIBITION OF BINDING OF HUI77 TO DENATURED COLLAGEN IV [2, 11]: 0%; % INHIBITION OF BINDING OF HUI77 TO DENATURED COLLAGEN IV [2, 6]: 63%
7 | 6% | 3.5 | 7.5 | 2.5 | 8 | 3.5 | GPPG [SEQ ID NO: 35] | –
– | – | – | – | – | – | – | GPPGPPG (GPXGPXG; MOD_RES (3) Hydroxyproline; MOD_RES (6) Hydroxyproline) [SEQ ID NO: 32] | % INHIBITION OF BINDING OF D93 TO HUMAN DENATURED-COLLAGEN IV ([1]; peptide inhibitor concentration 1 μM, average of two studies, vs 1% BSA/PBS alone, listed as 15 (32), 1 µM): 8%; % INHIBITION OF BINDING OF D93 TO HUMAN DENATURED-COLLAGEN IV ([1]; peptide inhibitor concentration 10 μM, average of two studies, vs 1% BSA/PBS alone, listed as 15 (32), 10 µM): 17%; % INHIBITION OF BINDING OF D93 TO HUMAN DENATURED-COLLAGEN IV ([1]; peptide inhibitor concentration 100 μM, average of two studies, vs 1% BSA/PBS alone, listed as 15 (32), 100 µM): 64%; % INHIBITION OF BINDING OF D93 TO HUMAN DENATURED-COLLAGEN IV ([1]; peptide inhibitor concentration 1000 μM, average of two studies, vs 1% BSA/PBS alone, listed as 15 (32), 1000 µM): 92.5%; % INHIBITION OF BINDING OF HUI77 TO DENATURED COLLAGEN IV ([2]; peptide inhibitor concentration 10 μM, average of two studies, listed as 15 (32), 10 µM): 6%; % INHIBITION OF BINDING OF HUI77 TO DENATURED COLLAGEN IV ([2]; peptide inhibitor concentration 100 μM, average of two studies, listed as 15 (32), 100 µM): 7.5%; % INHIBITION OF BINDING OF HUI77 TO DENATURED COLLAGEN IV ([2]; peptide inhibitor concentration 1000 μM, average of two studies, listed as 15 (32), 1000 µM): 77%
– | – | – | – | – | – | – | GPPGPPG [SEQ ID NO: 33] | % INHIBITION OF BINDING OF D93 TO HUMAN DENATURED-COLLAGEN IV ([1]; peptide inhibitor concentration 1 μM, average of two studies, vs 1% BSA/PBS alone, listed as 23 (33), 1 µM): 5%; % INHIBITION OF BINDING OF D93 TO HUMAN DENATURED-COLLAGEN IV ([1]; peptide inhibitor concentration 10 μM, average of two studies, vs 1% BSA/PBS alone, listed as 23 (33), 10 µM): 4.5%; % INHIBITION OF BINDING OF D93 TO HUMAN DENATURED-COLLAGEN IV ([1]; peptide inhibitor concentration 100 μM, average of two studies, vs 1% BSA/PBS alone, listed as 23 (33), 100 µM): 1.5%; % INHIBITION OF BINDING OF D93 TO HUMAN DENATURED-COLLAGEN IV ([1]; peptide inhibitor concentration 1000 μM, average of two studies, vs 1% BSA/PBS alone, listed as 23 (33), 1000 µM): 6.5%; % INHIBITION OF BINDING OF HUI77 TO DENATURED COLLAGEN IV ([2]; peptide inhibitor concentration 10 μM, average of two studies, listed as 23 (33), 10 µM): 1.5%; % INHIBITION OF BINDING OF HUI77 TO DENATURED COLLAGEN IV ([2]; peptide inhibitor concentration 100 μM, average of two studies, listed as 23 (33), 100 µM): 2%; % INHIBITION OF BINDING OF HUI77 TO DENATURED COLLAGEN IV ([2]; peptide inhibitor concentration 1000 μM, average of two studies, listed as 23 (33), 1000 µM): 1%
9.5 | 21% | 77 | 92.5 | 7.5 | 12 | 44 | GPPGPPGP (GPXGPXGP; MOD_RES (3) Hydroxyproline; MOD_RES (6) Hydroxyproline) [SEQ ID NO: 31] | –
30 | 81% | 93.5 | 93.5 | 7.5 | 18 | – | Hyp-G-A-K-G-L-P-G-P-Hyp-G-P-Hyp-G-P-Y [SEQ ID NO: 2] | % INHIBITION OF BINDING OF HUI77 TO DENATURED COLLAGEN IV ([2]; peptide inhibitor concentration 1000 μM, average of two studies, 1000 µM): 86%; % INHIBITION OF BINDING OF HUI77 TO DENATURED COLLAGEN IV ([2]; peptide inhibitor concentration 1000 μM, average of two studies, listed as 12 (2), 1000 µM): 86.5%
10.5 | 6% | 8 | 32 | 7 | 14.5 | 75 | L-Hyp-G-F-Hyp-G (L[Hyp]GF[Hyp]G) [SEQ ID NO: 23] | –
6.5 | 12% | 52.5 | 90 | 3 | 8 | 64 | L-Hyp-G-P-Hyp-G (L[Hyp]GP[Hyp]G) [SEQ ID NO: 24] | –
